For six compounds, IC50 results are on record in ChEMBL document CHEMBL4715900, “Novel Substituted Monocyclic Heteroaryl Compounds for Treating Huntington's Disease” (ACS Med Chem Lett, 2021).

The IC50 is the concentration needed to halve the response being measured.

The assay concerns the target Huntingtin (Homo sapiens, UniProt P42858). The experiment in a line: Inhibition of Huntingtin protein (unknown origin) incubated for overnight in presence of MW1/MAB2166 monoclonal antibody by ELISA-based MSD electrochemiluminescence assay.

Chain of Huntingtin (P42858 whole entry): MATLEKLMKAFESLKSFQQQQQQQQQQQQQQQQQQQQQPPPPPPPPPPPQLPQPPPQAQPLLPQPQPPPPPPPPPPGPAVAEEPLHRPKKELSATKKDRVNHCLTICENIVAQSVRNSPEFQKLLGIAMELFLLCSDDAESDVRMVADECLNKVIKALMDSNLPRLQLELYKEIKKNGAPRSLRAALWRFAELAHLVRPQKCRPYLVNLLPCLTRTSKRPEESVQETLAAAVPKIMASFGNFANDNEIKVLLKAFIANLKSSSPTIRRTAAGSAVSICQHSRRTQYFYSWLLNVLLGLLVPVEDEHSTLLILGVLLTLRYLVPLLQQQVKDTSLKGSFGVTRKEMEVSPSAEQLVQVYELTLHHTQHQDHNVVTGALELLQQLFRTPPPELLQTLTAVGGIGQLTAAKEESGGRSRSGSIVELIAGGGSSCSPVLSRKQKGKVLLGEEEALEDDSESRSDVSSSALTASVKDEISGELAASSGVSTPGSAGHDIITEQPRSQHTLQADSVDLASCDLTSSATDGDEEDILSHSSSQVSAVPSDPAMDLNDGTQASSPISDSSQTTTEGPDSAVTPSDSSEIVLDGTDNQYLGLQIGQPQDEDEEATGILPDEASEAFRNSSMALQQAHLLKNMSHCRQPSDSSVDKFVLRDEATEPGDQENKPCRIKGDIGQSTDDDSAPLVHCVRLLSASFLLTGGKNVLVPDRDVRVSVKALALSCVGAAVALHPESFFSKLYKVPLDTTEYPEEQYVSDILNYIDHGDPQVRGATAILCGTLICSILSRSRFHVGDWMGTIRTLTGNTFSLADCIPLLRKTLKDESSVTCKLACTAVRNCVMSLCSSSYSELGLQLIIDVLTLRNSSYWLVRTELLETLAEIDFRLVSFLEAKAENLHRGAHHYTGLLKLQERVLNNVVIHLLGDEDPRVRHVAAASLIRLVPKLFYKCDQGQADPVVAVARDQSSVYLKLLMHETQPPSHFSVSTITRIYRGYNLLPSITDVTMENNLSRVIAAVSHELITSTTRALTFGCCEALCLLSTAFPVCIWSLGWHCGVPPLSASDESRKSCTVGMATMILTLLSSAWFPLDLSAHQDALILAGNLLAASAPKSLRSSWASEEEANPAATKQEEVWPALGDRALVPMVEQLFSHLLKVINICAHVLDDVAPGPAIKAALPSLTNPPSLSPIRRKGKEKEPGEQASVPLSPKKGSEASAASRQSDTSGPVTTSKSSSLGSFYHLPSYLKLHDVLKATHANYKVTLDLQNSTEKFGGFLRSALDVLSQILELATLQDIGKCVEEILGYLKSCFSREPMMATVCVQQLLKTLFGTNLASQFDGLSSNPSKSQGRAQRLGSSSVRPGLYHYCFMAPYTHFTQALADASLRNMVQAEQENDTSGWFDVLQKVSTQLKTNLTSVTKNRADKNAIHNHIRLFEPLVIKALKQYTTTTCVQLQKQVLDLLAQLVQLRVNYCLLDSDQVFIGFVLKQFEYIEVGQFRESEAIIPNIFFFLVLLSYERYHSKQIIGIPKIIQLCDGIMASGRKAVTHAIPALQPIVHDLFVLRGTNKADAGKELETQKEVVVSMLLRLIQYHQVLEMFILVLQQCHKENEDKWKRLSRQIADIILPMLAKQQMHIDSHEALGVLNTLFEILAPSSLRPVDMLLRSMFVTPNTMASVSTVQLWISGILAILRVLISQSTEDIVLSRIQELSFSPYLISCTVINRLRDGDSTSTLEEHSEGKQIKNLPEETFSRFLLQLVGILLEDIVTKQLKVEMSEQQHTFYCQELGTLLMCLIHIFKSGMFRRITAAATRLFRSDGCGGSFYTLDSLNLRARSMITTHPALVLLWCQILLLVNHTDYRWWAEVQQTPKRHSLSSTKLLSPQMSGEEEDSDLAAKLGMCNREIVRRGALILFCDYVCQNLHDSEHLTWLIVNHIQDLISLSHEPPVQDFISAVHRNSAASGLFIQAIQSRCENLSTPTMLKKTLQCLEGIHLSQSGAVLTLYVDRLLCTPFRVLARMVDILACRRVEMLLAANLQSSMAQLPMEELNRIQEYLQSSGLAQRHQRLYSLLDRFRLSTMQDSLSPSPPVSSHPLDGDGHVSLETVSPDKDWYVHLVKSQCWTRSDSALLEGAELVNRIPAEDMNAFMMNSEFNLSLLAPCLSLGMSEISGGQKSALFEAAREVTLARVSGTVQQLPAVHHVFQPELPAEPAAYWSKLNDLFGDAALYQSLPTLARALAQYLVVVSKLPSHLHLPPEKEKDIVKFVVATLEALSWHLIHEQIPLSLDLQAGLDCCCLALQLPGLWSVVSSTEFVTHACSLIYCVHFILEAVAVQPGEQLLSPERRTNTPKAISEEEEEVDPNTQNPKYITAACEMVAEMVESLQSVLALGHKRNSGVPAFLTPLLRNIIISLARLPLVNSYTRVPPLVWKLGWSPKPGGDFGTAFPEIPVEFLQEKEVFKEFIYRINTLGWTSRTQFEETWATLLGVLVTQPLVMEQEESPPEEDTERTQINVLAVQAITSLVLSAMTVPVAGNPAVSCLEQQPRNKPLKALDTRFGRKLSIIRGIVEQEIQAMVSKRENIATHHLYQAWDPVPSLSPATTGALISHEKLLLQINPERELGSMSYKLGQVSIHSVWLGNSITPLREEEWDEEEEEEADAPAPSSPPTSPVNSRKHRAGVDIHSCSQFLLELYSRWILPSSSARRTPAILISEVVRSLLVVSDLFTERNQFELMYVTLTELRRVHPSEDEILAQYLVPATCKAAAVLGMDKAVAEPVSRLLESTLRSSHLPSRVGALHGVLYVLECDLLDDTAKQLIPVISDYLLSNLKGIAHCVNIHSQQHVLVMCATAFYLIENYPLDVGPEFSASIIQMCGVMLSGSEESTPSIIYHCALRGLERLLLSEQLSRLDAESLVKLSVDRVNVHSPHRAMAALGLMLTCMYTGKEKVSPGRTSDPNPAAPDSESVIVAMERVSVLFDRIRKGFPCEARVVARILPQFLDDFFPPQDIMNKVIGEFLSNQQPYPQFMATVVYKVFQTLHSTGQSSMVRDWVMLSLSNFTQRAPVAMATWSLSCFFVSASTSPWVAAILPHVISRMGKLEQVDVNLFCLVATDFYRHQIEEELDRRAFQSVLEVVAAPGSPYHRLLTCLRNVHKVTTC

With `CN(c1cnc(-c2ccc(-n3nccn3)cc2O)nn1)C1CC(C)(C)NC(C)(C)C1`, the IC50 was not above 100 nM. The same measure for `Cn1cc(-c2ccc(-c3cnc(NC4CC(C)(C)NC(C)(C)C4)nn3)c(O)c2)cn1`: not above 100 nM.

On to `CN(c1ncc(-c2ccc(-c3ncco3)cc2O)nn1)C1CC(C)(C)NC(C)(C)C1`, for which the IC50 is not above 100 nM. The same measure for `CC(C)(C)NC1CCN(c2ncc(-c3ccc(-c4c[nH]nc4C#N)cc3O)nn2)C1` (stereo unspecified): not above 100 nM. With `CC1(C)CC(Nc2cnc(-c3ccc(-c4cn[nH]c4)cc3O)nn2)C(F)C(C)(C)N1` (stereo unspecified) the figure was not above 100 nM; with `CN(c1cnc(-c2ccc(-c3cn[nH]c3F)cc2O)nn1)C1CC(C)(C)NC(C)(C)C1`, not above 100 nM.
